# Test results as given in patent US20150119378A1, “AZETIDINYLOXY-, PYRROLIDINYLOXY-, AND PIPERIDINYLOXY-SUBSTITUTED METANICOTINES AS NEURONAL NICOTINIC ACETYLCHOLINE RECEPTOR LIGANDS” (priority 2013, published 2015).
# Where two headings read alike, the source gives them in different places.
# How the values were obtained:
# [1] = biological target: T1, Human Ganglion (Homo sapiens, UniProt P30926+P32297); assay: Competition binding to receptors in membrane preparations, human ganglion subtype ([3H]-epibatidine)
# T1 construct: endogenous in cells
# Description: (§1) SH-EP1/human α4β2 (Eaton et al., 2003), SH-EP1/human α4β4 (Gentry et al., 2003), SH-EP1/α6β3β4α5 (Grinevich et al., 2005), TE671/RD and SH-SY5Y cell lines (obtained from Dr. Ron Lukas, Barrow Neurological Institute) were maintained in proliferative growth phase in Dulbecco's modified Eagle's medium (Gibco/BRL) with 10% horse serum (Gibco BRL), 5% fetal bovine serum (HyClone, Logan Utah), 1 mM sodium pyruvate, 4 mM L-glutamine. For maintenance of stable transfectants, the α4β2 and α4β4 cell media was supplemented with 0.25 mg/mL zeocin and 0.13 mg/mL hygromycin B. Selection was maintained for the α6β3β4α5 cells with 0.25 mg/mL of zeocin, 0.13 mg/mL of hygromycin B, 0.4 mg/mL of geneticin, and 0.2 mg/mL of blasticidin. HEK/human α7/RIC3 cells (obtained from J. Lindstrom, U. Pennsylvania) were maintained in proliferative growth phase in Dulbecco's modified Eagle's medium (Gibco/BRL) with 10% fetal bovine serum (HyClone, Logan Utah), 1 mM sodium pyruvate, 4 mM L-glutamine, 0.4 mg/mL geneticin; 0.2 mg/ml hygromycin B.
# (§2) Cells were harvested in ice-cold PBS, pH 7.4, then homogenized with a polytron (Brinkmann Instruments, Westbury, N.Y.). Homongenates were centrifuged at 40,000 g for 20 minutes (4° C.). The pellet was resuspended in PBS and protein concentration determined using the Pierce BCA Protein Assay kit (Pierce Biotechnology, Rockford, Ill.).
# (§3) Binding to nicotinic receptors was assayed on membranes using standard methods adapted from published procedures (Lippiello and Fernandes, 1986; Davies et al., 1999). In brief, membranes were reconstituted from frozen stocks (approximately 0.2 mg protein) and incubated for 2 h on ice in […] assay buffer (PBS) in the presence of competitor compound (0.001 nM to […]) and radioligand. [^3H]-nicotine (L-(−)-[N-methyl-3H]-nicotine, 69.5 Ci/mmol, Perkin-Elmer Life Sciences) was used for human α4β2 binding studies. [^3H]-epibatidine (52 Ci/mmol, Perkin-Elmer Life Sciences) was used for binding studies at the other receptor subtypes. Incubation was terminated by rapid filtration on a multimanifold tissue harvester (Brandel, Gaithersburg, Md.) using GF/B filters presoaked in 0.33% polyethyleneimine (w/v) to reduce non-specific binding. Filters were washed 3 times and the radioactivity retained was determined by liquid scintillation counting.
# (§4) Binding data were expressed as percent total control binding. Replicates for each point were averaged and plotted against the log of drug concentration. The IC50 (concentration of the compound that produces 50% inhibition of binding) was determined by least squares non-linear regression using GraphPad Prism software (GraphPAD, San Diego, Calif.). Ki was calculated using the Cheng-Prusoff equation (Cheng and Prusoff, 1973).
# [2] = biological target: T2, Human α7 nAChR (Homo sapiens, UniProt P36544); assay: Competition binding to receptors in membrane preparations, human α7 ([3H]-epibatidine)
# T2 construct: expressed in transfected cells; host or cells: HEK cells co-expressing RIC3 (from J. Lindstrom, U. Pennsylvania)
# Description: as §1, §2, §3, §4
# [3] = biological target: T3, Human α4β2 (Homo sapiens, UniProt P17787+P43681); assay: Competition binding to receptors in membrane preparations, human α4β2 ([3H]-nicotine)
# T3 construct: expressed in transfected cells; obtained from Dr. Ron Lukas, Barrow Neurological Institute
# Description: as §1, §2, §3, §4
# [4] = biological target: Rat Ganglion (Rattus norvegicus, UniProt P04757+P12392); assay: Competition binding to receptors in membrane preparations, rat ganglion subtype ([3H]-epibatidine)
# Description: as §3, §4
# [5] = tested on: memory (recognition) task in the rat; assay: Object recognition task (NOR); format: in vivo, male Sprague-Dawley rats
# Description: The compounds of the present invention were assessed for cognitive enhancing properties in the object recognition task in rats. In more detail, the compounds of the present invention, specifically Test Compound, (2S,4E)-N-methyl-5-(5-((3R)-1-(4,4,4-trifluorobutanoyl)pyrrolidin-3-yloxy)-6-chloro-3-pyridinyl)-4-penten-2-amine, or a pharmaceutically acceptable salt thereof, such as the hemi-galactarate, were tested to characterize the cognitive-enhancing properties of in a memory (recognition) task in the rat following oral dosing. Reference is made, for example, to Ennaceur A., et al., (1988), A New One-Trial Test for Neurobiological Studies of Memory in Rats, Behavioral Brain Research, 31, pp. 47-59.
# The animals used were male Sprague-Dawley rats (Charles River, Raleigh, N.C., USA), of 134-173 g body weight range on receipt. The animals were stabilized for at least 6 days after delivery in plastic cages on alpha-dry bedding with access to food and water (2 per cage).
# The Test Compound was dissolved in deionized water. The treatment schedule was 0.001, 0.01 and 0.1 mg/kg of base (salt/base ratio=1.25; equivalent to […]) or vehicle was administered p.o. 6H before exploratory, acquisition, and recall object recognition trials. All treatments were separated by 24 h, however although the acclimation and acquisition trials were separated by 24 h, the recall trial occurred 30 h after the acquisition trial (i.e. 6 h after the third dose).
# The method of evaluation included cognitive activity using the method of Luine et al. A statistical analysis was performed using parametric distribution (exploration time): Student's t-test; (% RI): Kruskall-Wallace One-way ANOVA on Ranks with Dunn's method for post-hoc analyses.
# [6] = tested on: scopolamine induced deficit in mice; assay: Morris Water Maze, scopolamine-induced memory (spatial) deficit; format: in vivo, male CD-1 mice
# Description: Compounds of the present invention were tested in the Morris Water Navigation Task to characterize the cognitive-enhancing properties, namely through a chemically-induced memory (spatial) deficit task in the mouse.
# The animals were male CD-1 mice (Charles River, Raleigh, N.C., USA), with 25-30 g body weight range on receipt. Animals were stabilized for at least 5 days after delivery in plastic cages on alpha-dry bedding with free access to food and water.
# Test Compound, (2S,4E)-N-methyl-5-(5-((3R)-1-(4,4,4-trifluorobutanoyl)pyrrolidin-3-yloxy)-6-chloro-3-pyridinyl)-4-penten-2-amine, or a pharmaceutically acceptable salt thereof, such as the hemi-galactarate, was dissolved in deionized water (salt/base ratio=1.25).
# The treatment schedule included scopolamine (0.75 mg/kg; s.c.) administered 15 minutes before the first training session each training day in combination with Test Compound (0.3, 1, 3 mg/kg of base) administered i.g. 25 minutes before the first training session each training day.
# Scopolamine (0.75 mg/kg; s.c.) alone was administered 15 minutes before the training session each training day.
# Cognitive activity was evaluated using an acquisition procedure in the Morris water maze whereby animals are administered a cognitively impairing compound (scopolamine) alone or in combination with a Test Compound during training sessions on days 1-4. Performance is evaluated on day 5 during a probe trial without any drug on board.
# Preliminary analysis used one-way analysis of variance followed by post-hoc t-tests (Dunnetts) where applicable.
# [7] = 0.3 mg/kg i.g. with scopolamine 0.75 mg/kg s.c., vs scopolamine alone, Dunnett's p<0.01
Compound,Ki [1],Ki [2],Ki ([3]; read-out: Human α4β2 Ki),Ki [4],other results
CN[C@@H](C)C/C=C/c1cncc(O[C@H]2CCN(C(=O)CCC(F)(F)F)C2)c1,18 µM,49 µM,0.011 µM,33 µM,
CN[C@@H](C)C/C=C/c1cncc(O[C@H]2CCN(C(=O)c3ccc(F)cc3)C2)c1,14 µM,58 µM,0.0052 µM,190 µM,
CN[C@@H](C)C/C=C/c1cnc(Cl)c(O[C@H]2CCN(C(=O)c3ccc(F)cc3)C2)c1,16 µM,98 µM,0.0015 µM,5.9 µM,
CN[C@@H](C)C/C=C/c1cncc(O[C@@H]2CCN(C(=O)C(C)C)C2)c1,11 µM,35 µM,0.009 µM,50 µM,
CN[C@@H](C)C/C=C/c1cncc(O[C@@H]2CCN(C(=O)c3ccc(F)cc3F)C2)c1,3 µM,41 µM,0.0059 µM,19 µM,
CN[C@@H](C)C/C=C/c1cncc(O[C@@H]2CCN(C(=O)C(C)(C)C)C2)c1,21 µM,51 µM,0.017 µM,100 µM,
CN[C@@H](C)C/C=C/c1cncc(O[C@@H]2CCN(C(=O)C3CCC3)C2)c1,26 µM,58 µM,0.0061 µM,45 µM,
CN[C@@H](C)C/C=C/c1cncc(O[C@@H]2CCN(C(=O)C3CCCC3)C2)c1,14 µM,26 µM,0.0074 µM,28 µM,
"CN[C@@H](C)C/C=C/c1cnc(Cl)c(O[C@@H]2CCN(C(=O)CCC(F)(F)F)C2)c1 [Test Compound, (2S,4E)-N-methyl-5-(5-((3R)-1-(4,4,4-trifluorobutanoyl)pyrrolidin-3-yloxy)-6-chloro-3-pyridinyl)-4-penten-2-amine]",,,,,"overt behavioral side effects ([5]; 0.001, 0.01, 0.1 mg/kg p.o., rats): No overt behavioral side effects were observed; recognition index (% RI) compared to vehicle-treated group ([5]; all dose groups 0.001-0.1 mg/kg p.o., statistical significance at the two higher doses): improved; time investigating object B (novel) versus object A (familiar) ([5]; any dose (0.001, 0.01 or 0.1 mg/kg p.o.), recall 6 h after third daily dose): spent significantly (P<0.05) more time investigating object B (novel) than object A (familiar); MED for % RI ([5]; p.o., rats, non-parametric statistical analyses): 0.01 mg/kg; episodic memory, % RI (summary) ([5]; young rats, dose range of 0.01 to 0.1 mg/kg, strong trend at 0.001 mg/kg): facilitates episodic memory; mean distance from the platform (proximity) in the probe trial [6, 7]: significantly improved performance; time spent in the target quadrant in the probe trial [6, 7]: significantly improved performance; time spent in the target quadrant in the probe trial ([6]; 3.0 mg/kg i.g. with scopolamine 0.75 mg/kg s.c., vs scopolamine alone, Dunnett's p<0.05): significantly improved performance; spatial memory performance (summary) ([6]; doses of 0.3 and 3.0 mg/kg, animals cognitively impaired by scopolamine): significantly improved spatial memory performance"
CN[C@@H](C)C/C=C/c1cnc(Cl)c(O[C@@H]2CCN(C(=O)CCC(F)(F)F)C2)c1 [drawing 62],7.4 µM,55 µM,,15 µM,Ki [3]: 0.0014 µM
